# Like-named read-outs stand apart in the source and are kept apart here.
# How the values were obtained:
# Candida albicans [1] = experiment: microbe, parasite or virus in culture; conditions: read-out: Antifungal activity, […]
# Saccharomyces cerevisiae = experiment: microbe, parasite or virus in culture; conditions: read-out: Antifungal activity, […]
# [2] = system: vesicular stomatitis virus (VSV); format: cell-based; conditions: CV-1 cells, 8 μg/well
# Penicillium atrovenetum = experiment: microbe, parasite or virus in culture; format: cell-based; conditions: read-out: Antifungal activity, Pa: diameter of the zone of growth inhibition
# CV-1 cells = conditions: for VSV cyt (cytotoxicity): VSV-infected CV-1 cells
# [3] = system: herpes simplex type 1 (HSV-1); format: cell-based
# Candida albicans [4] = experiment: microbe, parasite or virus in culture; conditions: read-out: Ca MIC
smiles,measurement,setting,value
"COC1CC(C)OC(CCC(C)C(O)C(C)C2OC(=O)C(C)=CCC(O)CC3C=CCC(CC(OC)C(C)C(O)CC(O)C(C)C(C(C)C(O)C(C)CCC4CC(OC)CC(C)O4)OC(=O)C(C)=CCC(O)CC4C=CCC(CC(OC)C(C)C(O)CC(O)C2C)O4)O3)C1 (stereo not drawn) [misakinolide, Misakinolide]",zone of inhibition at 5 µg/disc,Candida albicans [1],10 mm
same,zone of inhibition at 5 µg/disc,Saccharomyces cerevisiae,12 mm
same,VSV av (antiviral activity),[2],+
same,zone of inhibition at 5 µg/disc,Penicillium atrovenetum,10 mm
same,HSV-1 cyt (cytotoxicity),CV-1 cells,0
same,VSV cyt (cytotoxicity),CV-1 cells; 4 μg/well,0
same,VSV cyt (cytotoxicity),CV-1 cells; 8 μg/well,0
same,HSV-1 av (antiviral activity),[3],++ and +
same,MIC,Candida albicans [4],5 µg/mL
